This data set has as its system oligonucleotide complementary to the probe with the exception of the base complementary to the dI at position 15. Nature of the data set: Specificity of the array of probes: hybridization with a single-mismatch oligonucleotide. Type of data set: binding.

[I] = hypoxanthine (inosine)

What is called Tm is the temperature at which the thermal transition is half complete. “d(CAITICGTIITCCTITT) (DNA CANTNCGTNNTCCTNTT; DNA, [I] at 3, 5, 9, 10, 15, backbone not given here) [SEQ ID No. 32]”: the “hybridization with mismatched oligonucleotide” value (at the hybridization temperature chosen for all probes (between 61.1 and 54.13° C., preferably about 57.6° C.)) is reported as “does not hybridize”. For the same substance, the midpoint of thermal melting (Tm) (duplex with oligonucleotide mismatched opposite the dI at position 15 of the probe) is 49.4 °C.
